# Calls of active or inactive are those of the source. No cut-off for these calls is given here.
# How the values were obtained:
# HT-29 = assay: Growth inhibition of human HT-29 cells after 48 hrs by SRB assay; type: functional; conditions: HT-29, 48 h
# CCRF-CEM = assay: Growth inhibition of human CCRF-CEM cells after 48 hrs by SRB assay; type: functional
# HL-60(TB) = assay: Growth inhibition of human HL-60(TB) cells after 48 hrs by SRB assay; type: functional; conditions: HL-60, 48 h
# K562 [1] = assay: Growth inhibition of human K562 cells after 48 hrs by SRB assay; type: functional; conditions: K562, 48 h
# MOLT-4 = assay: Growth inhibition of human MOLT4 cells after 48 hrs by SRB assay; type: functional; conditions: MOLT-4, 48 h
# RPMI-8226 = assay: Growth inhibition of human RPMI8226 cells after 48 hrs by SRB assay; type: functional; conditions: RPMI-8226, 48 h
# SR = assay: Growth inhibition of human SR cells after 48 hrs by SRB assay; type: functional
# A549 = assay: Growth inhibition of human A549 cells after 48 hrs by SRB assay; type: functional; conditions: A549, 48 h
# EKVX = assay: Growth inhibition of human EKVX cells after 48 hrs by SRB assay; type: functional
# HOP-62 = assay: Growth inhibition of human HOP62 cells after 48 hrs by SRB assay; type: functional; conditions: HOP-62, 48 h
# HOP-92 = assay: Growth inhibition of human HOP92 cells after 48 hrs by SRB assay; type: functional; conditions: HOP-92, 48 h
# NCI-H226 = assay: Growth inhibition of human NCI-H226 cells after 48 hrs by SRB assay; type: functional; conditions: NCI-H226, 48 h
# NCI-H23 = assay: Growth inhibition of human NCI-H23 cells after 48 hrs by SRB assay; type: functional; conditions: NCI-H23, 48 h
# NCI-H322M = assay: Growth inhibition of human NCI-H322M cells after 48 hrs by SRB assay; type: functional
# NCI-H460 = assay: Growth inhibition of human NCI-H460 cells after 48 hrs by SRB assay; type: functional; conditions: NCI-H460, 48 h
# NCI-H522 = assay: Growth inhibition of human NCI-H522 cells after 48 hrs by SRB assay; type: functional; conditions: NCI-H522, 48 h
# COLO 205 = assay: Growth inhibition of human COLO205 cells after 48 hrs by SRB assay; type: functional; conditions: COLO 205, 48 h
# HCC 2998 = assay: Growth inhibition of human HCC2998 cells after 48 hrs by SRB assay; type: functional; conditions: HCC 2998, 48 h
# HCT-116 = assay: Growth inhibition of human HCT116 cells after 48 hrs by SRB assay; type: functional; conditions: HCT-116, 48 h
# HCT-15 = assay: Growth inhibition of human HCT15 cells after 48 hrs by SRB assay; type: functional; conditions: HCT-15, 48 h
# LOX IMVI = assay: Growth inhibition of human LOXIMVI cells after 48 hrs by SRB assay; type: functional
# Malme-3M = assay: Growth inhibition of human MALME-3M cells after 48 hrs by SRB assay; type: functional
# M14 = assay: Growth inhibition of human M14 cells after 48 hrs by SRB assay; type: functional; conditions: M14, 48 h
# SK-MEL-28 = assay: Growth inhibition of human SK-MEL-28 cells after 48 hrs by SRB assay; type: functional; conditions: SK-MEL-28, 48 h
# SK-MEL-5 = assay: Growth inhibition of human SK-MEL-5 cells after 48 hrs by SRB assay; type: functional; conditions: SK-MEL-5, 48 h
# UACC-257 = assay: Growth inhibition of human UACC257 cells after 48 hrs by SRB assay; type: functional; conditions: UACC-257, 48 h
# UACC-62 = assay: Growth inhibition of human UACC62 cells after 48 hrs by SRB assay; type: functional; conditions: UACC-62, 48 h
# IGROV-1 = assay: Growth inhibition of human IGROV1 cells after 48 hrs by SRB assay; type: functional; conditions: IGROV-1, 48 h
# OVCAR-3 = assay: Growth inhibition of human OVCAR-3 cells after 48 hrs by SRB assay; type: functional; conditions: OVCAR-3, 48 h
# OVCAR-4 = assay: Growth inhibition of human OVCAR4 cells after 48 hrs by SRB assay; type: functional; conditions: OVCAR-4, 48 h
# OVCAR-5 = assay: Growth inhibition of human OVCAR5 cells after 48 hrs by SRB assay; type: functional; conditions: OVCAR-5, 48 h
# OVCAR-8 = assay: Growth inhibition of human OVCAR8 cells after 48 hrs by SRB assay; type: functional; conditions: OVCAR-8, 48 h
# SK-OV-3 = assay: Growth inhibition of human SKOV3 cells after 48 hrs by SRB assay; type: functional; conditions: SK-OV-3, 48 h
# 786-0 = assay: Growth inhibition of human 786-0 cells after 48 hrs by SRB assay; type: functional; conditions: 786-0, 48 h
# A498 = assay: Growth inhibition of human A498 cells after 48 hrs by SRB assay; type: functional; conditions: A498, 48 h
# ACHN = assay: Growth inhibition of human ACHN cells after 48 hrs by SRB assay; type: functional
# CAKI-1 = assay: Growth inhibition of human Caki1 cells after 48 hrs by SRB assay; type: functional; conditions: CAKI-1, 48 h
# RXF 393 = assay: Growth inhibition of human […] cells after 48 hrs by SRB assay; type: functional; conditions: RXF 393, 48 h
# SN12C = assay: Growth inhibition of human SN12C cells after 48 hrs by SRB assay; type: functional
# TK-10 = assay: Growth inhibition of human TK10 cells after 48 hrs by SRB assay; type: functional; conditions: TK-10, 48 h
# UO-31 = assay: Growth inhibition of human UO31 cells after 48 hrs by SRB assay; type: functional; conditions: UO-31, 48 h
# PC-3 = assay: Growth inhibition of human PC3 cells after 48 hrs by SRB assay; type: functional; conditions: PC-3, 48 h
# DU-145 = assay: Growth inhibition of human DU145 cells after 48 hrs by SRB assay; type: functional; conditions: DU-145, 48 h
# MCF7 = assay: Growth inhibition of human MCF7 cells after 48 hrs by SRB assay; type: functional; conditions: MCF7, 48 h
# NCI/ADR-RES = assay: Growth inhibition of human NCI/ADR-RES cells after 48 hrs by SRB assay; type: functional
# MDA-MB-231 = assay: Growth inhibition of human MDA-MB-231 cells after 48 hrs by SRB assay; type: functional; conditions: MDA-MB-231, 48 h
# [2] = Growth inhibition of human Hs 578T cells after 48 hrs by SRB assay; type: functional
# MDA-MB-435 = assay: Growth inhibition of human MDA-MB-435 cells after 48 hrs by SRB assay; type: functional; conditions: MDA-MB-435, 48 h
# BT-549 = assay: Growth inhibition of human BT549 cells after 48 hrs by SRB assay; type: functional; conditions: BT-549, 48 h
# T47D = assay: Growth inhibition of human T47D cells after 48 hrs by SRB assay; type: functional
# K562 [3] = assay: Cell cycle arrest in human K562 cells assessed as accumulation at S phase at 180 uM after 24 hrs using propidium iodide staining by flow cytometry; type: functional, cell-based
# K562 [4] = assay: Cell cycle arrest in human K562 cells assessed as accumulation at G2/M phase at 180 uM after 24 hrs using propidium iodide staining by flow cytometry; type: functional, cell-based
# KM12 = assay: Growth inhibition of human KM12 cells after 48 hrs by SRB assay; type: functional; conditions: KM12, 48 h
# SW-620 = assay: Growth inhibition of human SW620 cells after 48 hrs by SRB assay; type: functional; conditions: SW-620, 48 h
# SF-268 = assay: Growth inhibition of human SF268 cells after 48 hrs by SRB assay; type: functional; conditions: SF-268, 48 h
# SF-295 = assay: Growth inhibition of human SF295 cells after 48 hrs by SRB assay; type: functional; conditions: SF-295, 48 h
# SF-539 = assay: Growth inhibition of human SF539 cells after 48 hrs by SRB assay; type: functional; conditions: SF-539, 48 h
# SNB-19 = assay: Growth inhibition of human SNB19 cells after 48 hrs by SRB assay; type: functional; conditions: SNB-19, 48 h
# SNB-75 = assay: Growth inhibition of human SNB75 cells after 48 hrs by SRB assay; type: functional; conditions: SNB-75, 48 h
# U-251 = assay: Growth inhibition of human U251 cells after 48 hrs by SRB assay; type: functional; conditions: U-251, 48 h
compound,measurement,setting,value
COc1ccccc1NC(=O)n1nc(N)c2ccccc21,GI50,HT-29,> 100 µM
same,GI50,CCRF-CEM,> 100 µM
same,GI50,HL-60(TB),47.2 µM
same,GI50,K562 [1],> 100 µM
same,GI50,MOLT-4,54 µM
same,GI50,RPMI-8226,86 µM
same,GI50,SR,92.5 µM
same,GI50,A549,> 100 µM
same,GI50,EKVX,44.8 µM
same,GI50,HOP-62,100 µM
same,GI50,HOP-92,30.2 µM
same,GI50,NCI-H226,> 100 µM
same,GI50,NCI-H23,> 100 µM
same,GI50,NCI-H322M,> 100 µM
same,GI50,NCI-H460,78.9 µM
same,GI50,NCI-H522,49.5 µM
same,GI50,COLO 205,> 100 µM
same,GI50,HCC 2998,66.2 µM
same,GI50,HCT-116,> 100 µM
same,GI50,HCT-15,73.6 µM
same,GI50,LOX IMVI,92.1 µM
same,GI50,Malme-3M,> 100 µM
same,GI50,M14,> 100 µM
same,GI50,SK-MEL-28,> 100 µM
same,GI50,SK-MEL-5,> 100 µM
same,GI50,UACC-257,> 100 µM
same,GI50,UACC-62,> 100 µM
same,GI50,IGROV-1,27.3 µM
same,GI50,OVCAR-3,> 100 µM
same,GI50,OVCAR-4,> 100 µM
same,GI50,OVCAR-5,> 100 µM
same,GI50,OVCAR-8,> 100 µM
same,GI50,SK-OV-3,> 100 µM
same,GI50,786-0,> 100 µM
same,GI50,A498,> 100 µM
same,GI50,ACHN,> 100 µM
same,GI50,CAKI-1,> 100 µM
same,GI50,RXF 393,45.7 µM
same,GI50,SN12C,> 100 µM
same,GI50,TK-10,74.3 µM
same,GI50,UO-31,> 100 µM
same,GI50,PC-3,83.1 µM
same,GI50,DU-145,> 100 µM
same,GI50,MCF7,269 nM
same,TGI,MCF7,64.6 µM
same,CC50,MCF7; read-out: LC50 (the source's name),> 100 µM
same,GI50,NCI/ADR-RES,90.7 µM
same,GI50,MDA-MB-231,46.1 µM
same,GI50,[2],33.8 µM
same,GI50,MDA-MB-435,> 100 µM
same,GI50,BT-549,28 µM
same,GI50,T47D,> 100 µM
same,Activity,K562 [3],Active
same,Activity,K562 [4],Active
same,GI50,KM12,39.1 µM
same,GI50,SW-620,> 100 µM
same,GI50,SF-268,> 100 µM
same,GI50,SF-295,56.6 µM
same,GI50,SF-539,60.9 µM
same,GI50,SNB-19,> 100 µM
same,GI50,SNB-75,37 µM
same,GI50,U-251,98.7 µM

# Source: ChEMBL document CHEMBL1152860, “Synthesis and antiproliferative activity of 3-amino-N-phenyl-1H-indazole-1-carboxamides” (2009)
